The source of these data is patent US20150148377A1, “Quinoline Derivatives” (NOVARTIS AG, priority 2011, published 2015).

The experiment concerns CD86 on rat B cells. As to the kind of experiment: Rat B cell activation in whole blood (CD86 upregulation after anti-IgM and IL-4). The format is cell-based. To be noted: anti-IgM + rIL-4 stimulation, CD86 on CD45RA+ B cells, read-out: RWB/IC50 CD86. As for the experimental part:
PI3Kδ has been recognized to modulate B cell function when cells are stimulated through the B cell receptor (BCR) (Okkenhaug et al. Science 297:1031 (2002). For assessing the inhibitory property of compounds on B cell activation, the upregulation of activation markers CD86 on rat B cells derived from whole blood is measured after stimulation with anti-IgM and recombinant IL-4. The CD86 molecule (also known as B7-2) is primarily expressed on antigen-presenting cells, including B cells. Resting B cells express CD86 at low levels, but upregulate it following stimulation of e.g. the BCR or IL-4 receptor. CD86 on a B cell interacts with CD28 on T cells. This interaction is required for optimal T cell activation and for the generation of an optimal IgG1 response (Carreno et al. Annu Rev Immunol. 20:29 (2002)).
Whole blood was collected from the abdominal aorta adult male Lewis rats (LEW/HanHsd) oby using a 10 ml syringe with hypodermic needle pre-coated with sodium heparin. Blood was transferred into 50 ml Falcon tubes and the anticoagulant concentration was adjusted to 100 U/ml.
For assessment of the in vitro effects of immunosuppressive drugs, heparinized blood was prediluted to 50% with medium. As medium served DMEM high glucose (Animed cat#1-26F01-I) supplemented with 100 U/ml penicillin, […], 2 mM L-glutamin, 50 mg/ml dextran 40 and 5% fetal calf serum (FCS, Fetaclone I, Gibco #10270-106). Then, 190 μl prediluted blood was spiked with 10 μl of pre-diluted test compound in 96 well U-bottomed microtiter plates (Nunc) resulting in a 3-fold serial dilution with a concentration range from 20 to 0.0003 μM. Control wells were pretreated with DMSO to obtain a final concentration of 0.5% DMSO. Cultures were set up in duplicates, mixed well by agitation on a plate shaker (Heidolph Titramax 101; 30 sec, speed 900), pipetting up and down and agitated on the plate shaker again. Cultures were incubated at 37° C., 5% CO2 for 1 hr. Then, 20 μl of polyclonal goat anti-rat IgM Ab (Serotec, cat#302001) and 10 μl of diluted recombinant rIL-4 (Immunotools #340085) were added to obtain final concentrations of 30 μg/ml and 5 ng/ml, respectively. Plates were mixed by agitation on a plate shaker as above and incubated for 24 hrs at 37° C., 5% CO2.
After incubation, 15 μl of a 25 mM EDTA solution was added per well and shaken for 15 min to detach adherent cells. For analysis of surface activation markers, samples were then stained with PE-Cy5-labeled anti-ratCD45RA (BD cat#557015) to allow gating on B cells in FACS analysis. In addition, samples were stained with PE-labeled anti-rat CD86 (BD cat#551396). All staining procedures were performed at RT for 30 min in the dark. After incubation, samples were transferred to 96-deep well V-bottomed microtiter plates (Corning #396096) containing 2 ml/well of BD Lysing Solution (BD #349202). After lysis of erythrocytes samples were washed with 2 ml of CeIIWASH (BD #349524). Data was acquired on an LSRII or FACScalibur flow cytometer (BD Biosciences) using Cellquest Plus or DIVA (version 6.1.1) software, respectively. Lymphocytes were gated in the FSC/SSC dot blot according to size and granularity and further analyzed for expression of CD45RA and activation markers. Data were calculated from dot blots or histograms as percentage of cells positively stained for activation markers within the CD45RA+ population.
The percentage inhibition of B cell activation after exposure to drug was calculated by the following formula: […]
ORIGIN 7 software (Origin Lab Corporation, Northampton, Mass.) was used for non-linear regression curve fitting. The drug concentration resulting in 50% inhibition (IC50) was obtained by fitting the Hill equation to inhibition data.

With `Cc1cc(-c2ccnc3cc(F)c(O[C@H]4CCN(C(=O)C5CCOCC5)C4)cc23)cnc1S(C)(=O)=O` [Example C2, {(S)-3-[7-Fluoro-4-(6-methanesulfonyl-5-methyl-pyridin-3-yl)-quinolin-6-yloxy]-pyrrolidin-1-yl}-(tetrahydro-pyran-4-yl)-methanone], the IC50 is 46.2 nM.

Regarding `CCC(=O)N1CC[C@H](Oc2ccc3nccc(-c4cnc(S(C)(=O)=O)c(C)c4)c3c2)C1` [Example A25, 1-{(S)-3-[4-(6-Methanesulfonyl-5-methyl-pyridin-3-yl)-quinolin-6-yloxy]-pyrrolidin-1-yl}-propan-1-one], the IC50 was 443 nM. The figure for `COc1ncc(-c2ccnc3ccc(O[C@H]4CCN(C(=O)C5CCS(=O)(=O)CC5)C4)cc23)cc1C` [Example A15, (1,1-Dioxo-hexahydro-1lambda*6*-thiopyran-4-yl)-{(S)-3-[4-(6-methoxy-5-methyl-pyridin-3-yl)-quinolin-6-yloxy]-pyrrolidin-1-yl}-methanone] is 101 nM; for `COc1ncc(-c2ccnc3ccc(O[C@H]4CCN(C(=O)[C@@H]5CCN(C(C)=O)C5)C4)cc23)cc1C` [Example A10, 1-((R)-3-{(S)-3-[4-(6-Methoxy-5-methyl-pyridin-3-yl)-quinolin-6-yloxy]-pyrrolidine-1-carbonyl}-pyrrolidin-1-yl)-ethanone] it is 59 nM; for `COc1ncc(-c2ccnc3ccc(O[C@H]4CCN(C(=O)C5CCS(=O)(=O)CC5)C4)c(C)c23)cc1C` [Example B3, (1,1-Dioxo-hexahydro-1lambda*6*-thiopyran-4-yl)-{(S)-3-[4-(6-methoxy-5-methyl-pyridin-3-yl)-5-methyl-quinolin-6-yloxy]-pyrrolidin-1-yl}-methanone] it is 107 nM. For `COc1ncc(-c2ccnc3ccc(O[C@H]4CCN(C(=O)[C@@H]5CCN(C(C)=O)C5)C4)cc23)cc1C(F)F` [Example A24, 1-((R)-3-{(S)-3-[4-(5-Difluoromethyl-6-methoxy-pyridin-3-yl)-quinolin-6-yloxy]-pyrrolidine-1-carbonyl}-pyrrolidin-1-yl)-ethanone] the value was 47 nM.

Consider `COc1ncc(-c2ccnc3cc(F)c(O[C@H]4CCN(C(=O)C5CCS(=O)(=O)CC5)C4)cc23)cc1C` [Example C1, (1,1-Dioxo-hexahydro-1lambda*6*-thiopyran-4-yl)-{(S)-3-[7-fluoro-4-(6-methoxy-5-methyl-pyridin-3-yl)-quinolin-6-yloxy]-pyrrolidin-1-yl}-methanone], for which the IC50 turned out to be 86.5 nM. For `COc1ncc(-c2ccnc3ccc(O[C@H]4CCN(C(=O)C5CCS(=O)(=O)CC5)C4)cc23)cc1Cl` [Example A1, {(S)-3-[4-(5-Chloro-6-methoxy-pyridin-3-yl)-quinolin-6-yloxy]-pyrrolidin-1-yl}-(1,1-dioxo-hexahydro-1lambda*6*-thiopyran-4-yl)-methanone] the value was 73 nM; for `COc1ncc(-c2ccnc3ccc(O[C@H]4CCN(C(=O)[C@@H]5CCN(C(C)=O)C5)C4)c(C)c23)cc1C(F)F` [Example B1, 1-((R)-3-{(S)-3-[4-(5-Difluoromethyl-6-methoxy-pyridin-3-yl)-5-methylquinolin-6-yloxy]-pyrrolidine-1-carbonyl}-pyrrolidin-1-yl)-ethanone], 78 nM.

Regarding `COc1ncc(-c2ccnc3ccc(O[C@H]4CCN(C(=O)C5CCS(=O)(=O)CC5)C4)cc23)cc1C(F)F` [Example A6, {(S)-3-[4-(5-Difluoromethyl-6-methoxy-pyridin-3-yl)-quinolin-6-yloxy]-pyrrolidin-1-yl}-(1,1-dioxo-hexahydro-1lambda*6*-thiopyran-4-yl)-methanone], the IC50 was found to be 43 nM.
